According to patent US5691328A, “Phosphoethanolamine conjugates of vitamin D compounds” (Clarion Pharmaceuticals Inc., priority 1996, dated 1997):
Where two headings read alike, the source gives them in different places.

Assays:
[1] = tested on: MDA-MB-231 Human Breast Cancer Cell; test: in vitro MDA-MB-231 Human Breast Cancer Cell inhibition assay (sulforhodamine B); assay type: cell-based; conditions: at 100 μM; 48 hours; FIG. 1
Source text: FIG. 1 is a graphical representation of results from an in vitro MDA-MB-231 Human Breast Cancer Cell inhibition assay of a compound of the invention, designated CPR 2005, in comparison with vitamin D3.
(§1) 1. Human tumor cell lines, obtainable from the American Type Culture Collection (ATCC):
a. MDA-MB-231 (ATCC HTB-26): an estrogen receptor negative human breast carcinoma cell line (attachment dependent); and
a. For cell line 1-a: Dulbecco's Modified Eagle's Medium (DMEM) plus 10% Fetal Bovine Serum (FBS); and
(§2) 3. Standard protocol for culturing cell lines: in T-75 or T-150 flasks; 37° C.; 95% air, 5% CO2; 100% humidity;
a. […]
(§3) h. Read absorbance at 562 nm using a standard 96-well microtiler plate reader. Absorbance readings are linear with dye concentrations below 1.8 absorbance units. To reduce absorbance, decrease wavelength at which measurements are taken;
(§4) single point reading: the higher the absorbance, the higher the […]; […]
(§5) initial control cell number (ICCN)--no test compound present in culture medium, end point was determined at the time of treatment;
(§6) final control cell number (FCCN)--no test compound present in culture medium, end point was determined at […] after treatment;
(§7) final cell number (FCN)--test compound present in culture medium, end point was determined at 48 hours after treatment; […]
(§8) FCN=A(test compound, 48 hours)-A(Background) [formula] where A is absorbance. […]

[2] = tested on: HT-29 Human Colon Cancer Cells; test: in vitro HT-29 Human Colon Cancer Cells inhibition assay (sulforhodamine B); assay type: cell-based; conditions: at concentrations above 30 μM; 48 hours; FIG. 2
Source text: FIG. 2 is a graphical representation of results from an in vitro HT-29 Human Colon Cancer Cells inhibition assay of a compound of the invention, designated CPR 2005, in comparison with Vitamin D3.
as §1
b. HT-29 (ATCC HTB-38): a human colon caminoma cell line (attachment dependent).
b. For cell line 1-b: 1:1 DMEM and Ham's F-12 (DMEM/F12) plus 10% FBS.
as §2
a. […]
as §3, §4, §5, §6, §7, §8

[3] = tested on: PAM-212 Mouse Keratinocytes; test: in vitro PAM-212 Mouse Keratinocytes inhibition assay (anti-psoriasis); assay type: cell-based; conditions: at concentrations above 30 μM, 48 hours, FIG. 3
Source text: FIG. 3 is a graphical representation of results from an in vitro PAM-212 Mouse Keratinocytes inhibition assay of a compound of the invention, designated CPR 2005, in comparison with vitamin D3.
Psoriasis is a chronic inflammatory dermatosis characterized, in part, by hyper-proliferation of keratinocytes and release of pro-inflammatory cytokines. Compounds that reduce hyperproliferation of keratinocytes in vitro are likely to have utility in the control of psoriasis.
1. Cell line: PAM-212 murine keratinocyte cell line isolated and cultivated from newborn BALB/c mice (see S. H. Yuspa et al., Cancer Research, Vol. 40, pp. 4694-4703, December, 1980) that appears to retain many characteristics of normal keratinocytes.
2. Culture medium: 1:1 DMEM and Ham's F-12 with 10% FBS.
3. Culture conditions are the same as those described in part 3 of the assay protocol for anti-tumor activity.
4. Methodology is the same as that described in part 4 of the assay protocol for anti-tumor activity, except that, with reference to part 4(b) of the assay protocol for anti-tumor activity, cell concentration in this case is adjusted to 1,000 cells per 100 μL (rather than 5,000 cells per 100 μL).
5. End point determination and analysis are as described in part 5 of the assay protocol for anti-tumor activity.

[4] = tested on: RAW 264.7 murine monocyte/macrophage line; test: Assay for Anti-inflammatory Activity by Inhibition of Macrophage Chemiluminescence (respiratory burst, PMA-stimulated mouse macrophages); assay type: cell-based
Source text: The RAW 264.7 cell line (available from the ATCC under accession no. TIB 71) is a murine monocyte/macrophage line the cells of which show many of the differentiative functions of a macrophage. Like macrophages, the cells are capable of phagocytosis and undergo an oxidative burst (increased oxygen consumption) and production of oxygen radicals (e.g., superoxide) in response to appropriate signals. Agents that inhibit the activation of these cells in vitro, so as to inhibit the respiratory burst and corresponding production of oxygen radicals associated with the activation, are therefore inhibitors of macrophage activation and critical steps in inflammatory processes.
The respiratory burst and corresponding production of oxygen radicals that accompany macrophage activation can be measured in a variety of ways, including chemiluminescence based on the reaction of the oxygen radicals with luminol added to the culture medium (see M. A. Trush et at., 1978, "The Generation of Chemiluminescence by Phagocytic Cells." Methods in Enzymology 57: 462-494). Indeed, chemiluminescence generated from luminol in the culture medium of macrophage cell lines is recognized in the art as a marker of macrophage activation.
1. Cell line: Raw 264.7 (ATCC TIB-71, attachment dependent);
2. Culture medium: DMEM with 10% FBS;
as §2
a. Cell line is passaged when approximately 80% confluent; with trypsin (1 mg/ml) and EDTA ([…] in ca-MG free Hank's balanced salt solution); at a 1:4 to 1:5 split;
b. All procedures are performed aseptically in a class II biological safety cabinet using standard BL-2 containment procedures. In order to prevent genetic drift in stock cell lines, fresh cultures are prepared at approximately monthly intervals with cells thawed from liquid nitrogen storage.
a. After cell passage, count cells with a hemacytometer;
b. Adjust cell concentration to approximately 1,000,000 cells per mL;
c. Suspend cells in DMEM lacking phenol red and without FBS;
d. Pipette 1 mL of cell suspension into a standard luminometer cuvet (12×75), commercially obtainable from Analytical Luminescence Laboratories, San Diego, Calif., USA;
e. Add luminol to final concentration of 0.2 μM;
f. Add test compound dissolved in phosphate buffered saline (PBS), or in DMSO for the comparative compound, vitamin D3, for final concentration levels ranging from 0 to 30 μM;
g. Add 100 nanograms of phorbol myristate acetate (PMA); and
h. Wait 1 minute and read photo counts (i.e., luminescence) on a Monolight 2010 luminometer available from Analytical Luminescence Laboratories, San Diego.
Background--no test compound present; no PMA present;
Control--no test compound present;
Calculate: [formula] where L is luminescence. 6.

[5] = tested on: PMA-Induced Inflammation in Ears of CD-1 Mice; test: PMA-induced inflammation in mouse ears; assay type: in vivo, mouse (CD-1); conditions: 6 hours
Description: A common in vivo model for the evaluation of anti-inflammatory agents is PMA-induced inflammation in mouse ears. This method is described in "Pharmacological Methods in the Control of Inflammation", Joseph Y. Chang and Alan J. Lewis (eds), Alan R. Liss, Inc., N.Y., pp 221-223. In this assay, edema, which is a characteristic of inflammation, is quantified by determining ear thickness or ear weight approximately 6 hours after applying PMA to the ear.
1. Mice: Male CD-1, 21-24 g (Product Number 3002) obtainable from Harlan Sprague Dawley, Indianapolis, Ind., USA;
a. Prepare 0.01% (w/v) PMA in a mixture of equal volumes of acetone and ethanol;
b. Prepare 0.01% (w/v) PMA and 5% (w/v) test compound in a mixture of equal volumes of acetone and ethanol;
c. Divide 9 mice into 3 groups of 3 mice each;
d. Leave one group of mice untreated;
e. Treat the second group of mice by applying 20 μL of PMA solution to both ears using a micropipetter;
f. Treat the third group of mice by applying 20 μL of PMA solution to the right ear and 20 μL of PMA/test compound solution to the left ear;
g. Wait 6 hours and euthanize the mice in a CO2 chamber;
h. Cut the ears and punch out circles of 6-mm diameter; and
I. Measure the weight of three appropriate ear punches in the same group together.

[6] = Mus musculus, RAW264.7, read-out: % Inhibition of Respiratory Burst

Compound | inhibition of MDA-MB-231 cell growth [1] | inhibition of HT-29 cell growth [2] | inhibition of keratinocyte proliferation [3] | inhibition at 1 µM ([4]; RAW264.7, Concentration 1 μM, PMA-Stimulated Mouse Macrophages, read-out: % Inhibition of Respiratory Burst) [%] | inhibition at 3 µM ([4]; RAW264.7, Concentration 3 μM, PMA-Stimulated Mouse Macrophages, read-out: % Inhibition of Respiratory Burst) [%] | inhibition at 10 µM ([4]; RAW264.7, Concentration 10 μM, PMA-Stimulated Mouse Macrophages, read-out: % Inhibition of Respiratory Burst) [%] | inhibition at 30 µM ([4]; RAW264.7, Concentration 30 μM, PMA-Stimulated Mouse Macrophages, read-out: % Inhibition of Respiratory Burst) [%] | inhibition of luminescence ([4]; at concentrations above 1 μM, PMA-stimulated) | Average Weight of Punched Ear, left ear ([5]; CPR 2005 + PMA (left ear), PMA (right ear, 30 mg), PMA both ears: left 34, right 28, untreated 12, 20 μL of 0.01% PMA / 5% (w/v) test compound) [mg] | inhibition of PMA-induced inflammation in mouse ear ([5]; topical, 5% (w/v) test compound) | inhibition at 1 µM [4, 6] [%] | inhibition at 3 µM [4, 6] [%] | inhibition at 10 µM [4, 6] [%] | inhibition at 30 µM [4, 6] [%]
C=C1CC[C@H](OP(=O)([O-])OCC[N+](C)(C)C)C/C1=C/C=C1\CCC[C@]2(C)[C@@H]([C@H](C)CCCC(C)C)CC[C@@H]12 [CPR 2005, (5Z,7E)-(3S)-9,10-Secocholesta-5,7,10(19)-trien-3-phosphocholine] | marked inhibition | marked inhibition | marked inhibition | 45 | 90 | 98 | 99 | marked inhibition | 15 | marked inhibition | – | – | – | –
C=C1CC[C@H](O)C/C1=C/C=C1\CCC[C@]2(C)[C@@H]([C@H](C)CCCC(C)C)CC[C@@H]12 [Vitamin D3, 9, 10-secocholesta-5,7,10(19)-trien-3-ol, reference compound] | – | – | – | – | – | – | – | – | – | – | 10 | 9 | 2 | 12
